Data from the NIST ThermoML archive (doi:10.1016/j.jct.2013.08.010).

Assay: mn = molality of the nth substance listed, in mol/kg
Conditions: 101 kPa, Liquid; for speed of sound: Sing-around technique in a fixed-path interferometer; for mass density: Vibrating tube method

C[C@H](N)C(=O)O [(S)-2-aminopropanoic acid] + O
Conditions	mass density, 288.15 K [kg/m3]	mass density, 298.15 K [kg/m3]	mass density, 308.15 K [kg/m3]	mass density, 318.15 K [kg/m3]	speed of sound, 288.15 K [m/s]	speed of sound, 298.15 K [m/s]	speed of sound, 308.15 K [m/s]	speed of sound, 318.15 K [m/s]
m1 = 0.00939	999.393	997.32	994.294	990.395	1467.6	1497.9	1520.8	1537
m1 = 0.04689	1000.52	998.405	995.339	991.404	1469.9	1499.8	1522.7	1539.2
m1 = 0.09896	1002.07	999.9	996.777	992.791	1472.8	1502.8	1525.5	1542
m1 = 0.2003	1005.04	1002.78	999.545	995.459	1480.3	1509.6	1531.8	1547.9
m1 = 0.2979	1007.86	1005.5	1002.16	997.981	1487.3	1515.9	1537.9	1553.2
m1 = 0.3997	1010.74	1008.28	1004.85	1000.56	1494.3	1522.7	1544	1558.7
m1 = 0.4941	1013.38	1010.81	1007.28	1002.91	1500.3	1528	1549	1564.1
m1 = 0.6099	1016.55	1013.87	1010.22	1005.75	1509.5	1536.7	1556.8	1571.4
m1 = 0.6973	1018.88	1016.12	1012.38	1007.84	1513.3	1540.4	1560.7	1574.7
m1 = 0.7978	1021.55	1018.68	1014.85	1010.19	1520	1546.2	1566	1580.9
